Source: patent publication US7662361B2, “Methods and compositions for modulating drug activity through telomere damage” (priority 1999, dated 2010)

What was measured:
Format in all cases: cell-based, human
[1] = tested on: PC3 cells; test: Time course of apoptotic changes (caspase 3, PARP cleavage, DNA fragmentation, DNA-histone release); settings: 20 nM paclitaxel
Procedure: Caspase Activity. The activity of Caspase 3 was measured using the ApoAlert CPP32 assay (Clontech Laboratories, Palo Alto, Calif.). Briefly, 1×10^6 cells were lysed using the lysis buffer provided in the assay kit. The lysate was stored at −20° C. and analyzed within 1 week. Enzyme activity was detected by the cleavage of the substrate, Asp-Glu-Val-Asp-7-amino-4-trifluoromethyl coumarin (DEVD-AFC) to AFC, which emits a yellow-green fluorescence at 505 nm. The increase in caspase activity is measured as the ratio of the fluorescence intensity of a agent-treated sample (e.g., paclitaxel) to that of control cells collected at the same time.
PARP Cleavage. […] PARP cleavage was analyzed by immunoblotting. […] Protease inhibitors were used to minimize proteolytic cleavage of PARP during processing. […] Samples were sonicated on ice, resuspended using a 21 gauge needle, and then incubated at 75° C. for 15 min. After centrifugation, an aliquot representing 1.5×10^5 cells was loaded on a 10% SDS polyacrylamide gel and run at 30 mA overnight. The gel was transferred onto a […] nitrocellulose membrane by electroblotting. The membrane was incubated with blocking solution (5% non-fat dry milk in PBS containing 0.1% Tween 20) for 1 hr, followed by incubation with the PARP monoclonal antibody overnight at 4° C. and subsequently the anti-mouse immunoglobulin. After washing the membrane in PBS twice for 5 min each and once for 30 min, the immunoreactive bands were visualized by incubation of the membrane with the chemiluminescence immunoblot kit.
Release of DNA-Histone Complex to Cytoplasm. The level of DNA-histone mono- and oligonucleosomes in the cytoplasm was measured using the cell death detection ELISA kit. Briefly, 5000 cells were lysed in the lysis buffer. The cytoplasmic fractions of the lysates were placed in a […] precoated with mouse antihistone primary antibody and mouse anti-DNA antibody conjugated to peroxidase. The peroxidase substrate, 2,2′-azido-di-[3-ethylbenzthiazoline sulfonate], was applied and the absorbance at 405 nm was measured.
DNA Fragmentation. […] DNA was extracted twice with phenol/chloroform (1:1) and once with chloroform, and precipitated by adding 0.2 volume 10 M […] and 2 volumes ethanol. The pellet obtained after centrifugation was resuspended in 100 mM Tris-HCl and 10 mM EDTA (pH 8.0). The amount of DNA was measured by the absorbance at 260 nm, using a spectrophotometer. Samples showing a 260:280 absorbance ratio of >1.8, which ascertained the purity of the isolated DNA, were analyzed by gel electrophoresis. […] The DNA laddering pattern was visualized by UV transillumination and photographed.

[2] = tested on: SKOV3 cells; test: FISH detection of damaged telomeres after paclitaxel treatment; settings: 200 nM paclitaxel
Description: Fluorescent in situ hybridization (FISH). Fluorescent in situ hybridization (FISH) was used to identify the presence and to estimate the approximate length of individual telomere structures at the end of chromosomes. The FISH method used was a modification of a previously published method (Multani A S et al. (1996) Anticancer Res 16: 3435-3438; Henderson S et al. (1996) J Cell Biol 134:1-12), and consists of the following three steps: (a) the cells are fixed in a manner that promotes spreading of the chromosomes, (b) a nucleotide sequence complementary to the telomere sequence is used as probe to bind to the telomeres and to provide a point of attachment for fluorescently-labeled antibodies, and (c) the fluorescent signal is identified using fluorescent microscopy.
The methods are as follows. To spread the chromosomes, the cell pellet was incubated with a hypotonic solution (75 mM KCl) at 37° C. for 20 min, washed three times and fixed with acetic acid and methanol, dropped onto slides, air-dried, and denatured in 2×SSC and 70% formamide at 74° C. for 5 min. To detect the telomeres, the cells were incubated with a digoxigenin-labeled human telomeric probe (Oncor) at 37° C. for 16 to 18 hr. The slides were washed consecutively in 2×SSC at 42° C. and 72° C., each time for 5 min. After blocking with 5% skim milk for 10 min, cells were incubated sequentially with rhodamine-labeled (red color) anti-digoxigenin, rabbit anti-sheep, and rhodamine-labeled anti-rabbit antibodies, at room temperature for 30 min. Between each step, the slides were washed three times in 130 mM phosphate buffer, pH 7.4, 0.1% Triton X-100, each time for 5 min. The chromosomes were then counterstained with 0.1 μg/ml of […] (blue color) and examined under a fluorescence microscope at 100× magnification using a triple band pass filter at 340 nm.

[3] = tested on: telomerase activity of FaDu cells; test: TRAP telomerase activity in drug-treated cells; settings: 200 nM paclitaxel
Procedure: For the preparation of cell and tissue extracts, cells and tissue were harvested, washed, and stored at −70° C. Cells were then lysed in a SDS-based lysis buffer (10 mM Tris.HCl, pH 7.5, 1 mM MgCl2, 1 mM EGTA, 0.1 mM phenylmethylsulfonyl fluoride, 5 mM β-mercaptoethanol, 0.1% CHAPS, and 10% glycerol), on ice for 10 min. To this mixture, three volumes of CHAPS-based buffer (10 mM Tris-HCl, pH 7.5, 1 mM MgCl2, 1 mM EGTA, 0.1 mM phenylmethylsulfonyl fluoride, 5 mM β-mercaptoethanol, 0.5% CHAPS, and 10% glycerol) were added and kept on ice for 5 min. […] For the extraction of tissues, tissues were homogenized in SDS-based lysis buffer with a Kontes pellet pestle (Fisher, Pittsburgh, Pa.), mixed with three volumes of CHAPS-based buffer, and centrifuged were centrifuged at 8,000 g for 15 min at 4° C. The supernatant was kept at −20° C. The protein concentration of the supernatant was determined using Bicinchoninic Acid Kit (Sigma, St Louis, Mo.). The protein concentration was adjusted to 0.5 μg/μl with CHAPS-based buffer. Samples with equal amounts of protein (1-2 μg) were analyzed by TRAP. […] The TRAP reaction mixture contained 2-4 μl of protein extract, 20 mM Tris.HCl (pH 8.3), 1.5 mM MgCl2, 63 mM KCl, 0.005% Tween-20, 1 mM EGTA, 50 μM dNTPs, 0.1 μg of TS primer, 0.1 mg/ml bovine serum albumin. The mixture was incubated at 30° C. for 30 min, then at 90° C. for 2 min.
This was accomplished by using phenol/chloroform extraction of the cell lysate, as follows. One μg of tRNA and 0.1 ng internal control template were added to the reaction solution after primer extension. The total volume of the mixture was brought to 100 μl with water, mixed with an equal volume of buffer saturated phenol (Life Technology) and then centrifuged at 18,000 g for 3 min, at room temperature. The top aqueous layer (90 μl) was carefully transferred to a new tube and mixed with an equal volume of chloroform:isoamyl alcohol (24:1) solution and centrifuged at 18,000 g for 3 min, at room temperature. The top aqueous layer (80 μl) was again transferred to a new tube and the nucleotides were precipitated with 0.2 volume of 3 M sodium acetate (pH 5.3) and 3 volume of 100% ethanol at −70° C. for at least 2 hr. The mixture was centrifuged at 18,000 g for 15 min at 4° C. […]
The template for the internal standard was amplified by PCR and purified by spin columns (QIAquick PCR purification kit, Qiagen, Valencia, Calif.). The concentration was determined by a spectrophotometer.
PCR was performed on the GeneAmp PCR system 2400 (Perkin Elmer) and initiated by 1 cycle at 94° C. for 3 min, 50° C. for 4 min, and 68° C. for 2 min, then 25 rounds at 94° C. for 30 sec, 50° C. for 30 sec, and 68° C. for 90 sec, followed by 68° C. for 10 min. […] The gel was then dried and the amplification products were detected. […]

[4] = tested on: FaDu, MCF7 and PC3 cells; test: Cell Death Detection ELISA, release of DNA-histone complex; settings: single agents vs untreated controls
Procedure: Apoptosis was measured as the release of DNA-histone complex from the nucleus to the cytoplasm, using the Cell Death Detection ELISA kit which quantifies the amount of DNA-histone complex released into the cytoplasm. Briefly, drug-treated cells were collected and lysed in the lysis buffer. The cytoplasmic fractions of the lysates were placed in wells of a 96-well microtiter plate pre-coated with mouse antihistone primary antibody and mouse anti-DNA-antibody conjugated to peroxidase. The peroxidase substrate, 2,2′-azido-di-[3-ethylbenzthiazoline sulfonate], was applied and the absorbance at 405 nm was measured.
Treatment Protocol. Treatment with the above agents was initiated after cells were allowed to attach to the growth surface in culture flasks. […]
Drug activity evaluation. Agent effect was measured in three ways, i.e., enumeration of the number of cells that remained attached in culture flask, enumeration of the number of cells that detached from the growth surface, and by measuring changes in apoptosis. […] The remaining cell number after agent treatment was measured using the sulforhodamine B (SRB) assay. The drug-induced detachment of cells from the growth surface was determined by counting the attached and detached cells. Drug-induced apoptosis was measured using the Cell Death Detection ELISA kit which measures the release of DNA-histone complex from the nucleus to the cytoplasm. […]

CC(=O)O[C@H]1C(=O)[C@@]2(C)[C@H]([C@H](OC(=O)c3ccccc3)[C@]3(O)C[C@H](OC(=O)[C@H](O)[C@@H](NC(=O)c4ccccc4)c4ccccc4)C(C)=C1C3(C)C)[C@]1(OC(C)=O)CO[C@@H]1C[C@@H]2O [paclitaxel]
caspase activation, time of occurrence ([1]; attached cells): 24 h | PARP cleavage completed ([1]; detached cells): < 72 h | PARP cleavage first detected ([1]; detached cells): 24 h | caspase activation first detected ([1]; detached cells): 12 h | caspase activation peak ([1]; detached cells): 36 h | internucleosomal DNA fragmentation and release of DNA-histone complex first detected ([1]; detached cells): 24 h | attached cells showing damaged telomeres ([2]; 1 and 12 hr): < 5% | detached cells showing damaged telomeres ([2]; 1 hr): 40% | detached cells showing damaged telomeres ([2]; 12 hr): 90% | treatment time after which shortening or deletion of telomeres was detectable ([2]; FaDu and SKOV3): 1 h | peak telomerase activity ([3]; 3 hr): ~180 % of control value | telomerase activity ([3]; 24 hr): returning to the baseline level | telomerase activity ([3]; 48 hr): 50 % of the control values | release of DNA-histone complex from the nucleus to the cytoplasm [4]: significant enhancement
